# Like-named read-outs stand apart in the source and are kept apart here.
# Experiments:
# [1] = test system: MV4; 11 cell line; test: Cell Titer-Glo viability, fixed agent + dose response agent combinations; assay type: cell-based, human; settings: Homo sapiens
# Experimental: (§1) The additional therapeutic agents for this example were azacitidine (Cayman Chemical Cat No. 11164), decitabine (Sigma Cat No. A3656) and venetoclax (InvivoChem Cat. No. V0001).
# (§2) Cell Culture: Three human acute myeloid leukemia tumor cell lines were used in this study: HL60, MV4;11 and MOLM-13. HL60 and MV4;11 were grown in IMDM base media with 20% and 10% FBS, respectively. MOLM-13 was grown in RPMI 1640 base media with 20% FBS. All culture media contained 2 mM glutamine, 100 units/mL sodium penicillin G, […] gentamicin, and 100 µg/mL streptomycin sulfate. The tumor cells were cultured in tissue culture flasks in a humidified incubator at 37° C., in an atmosphere of 5% CO2 and 95% air. Assay: Tumor cells were seeded in duplicate in a volume of 100 µL/well of media into 96-well micro-culture plates at initial densities low enough to allow for several population doublings (typically three to five) during the indicated incubation period. After a 24 hour incubation, test agents were added to each well. After 72 hours of culture with test articles, cell viability was determined using the Cell Titer-Glo® (Promega G7571) assay. Briefly, Cell Titer-Glo® (Promega G7571) reagents were equilibrated at room temperature for 30 minutes; 100 μL per well was added at endpoint (72 hours). Plates were gently shaken for two minutes and then incubated at room temperature for ten minutes prior to reading luminescence on the BMG Clariostar Plus microplate reader.
# (§3) An IC50 ratio for each combination was calculated from the ratio of the combination IC50 as compared to the applicable no fixed agent (vehicle) control.
# [2] = test system: HL-60 cell line; test: as above; assay type: cell-based, human; settings: Homo sapiens
# Experimental: as §1, §2, §3
# [3] = test system: MOML-13 cell line; test: as above; assay type: cell-based, human; settings: Homo sapiens
# Experimental: as §1, §2, §3
# [4] = test system: MV-4-11 (Human B Myelomoncytic Leukemia cell line); test: Combination Index (Chou-Talalay) of Compound 1 with second therapeutic agents; assay type: cell-based; settings: for effect of the combination with Compound 1: MV-4-11 (FLT3 homozygous mutant); for Combination Index: agent in combination with Compound 1, CI scores across all 3 ratios averaged, MV-4-11
# Experimental: (§4) Each combination was tested in 3 cell lines: MOML-13 (Human Acute Myeloid Leukemia cell line; Addex Bio), MV-4-11 (Human B Myelomoncytic Leukemia cell line; ATCC), and OCI-AML-3 (Human Acute Myeloid Leukemia cell line).
# (§5) Within this range, 20 dose levels were tested for each combination, with each response determined in duplicate. […] The actual drug concentrations in the ratios were determined from the IC50 values obtained for each individual drug.
# (§6) Raw data was analyzed using Graph Pad Prism, four parameter logistic fits, and Chou-Talalay drug combination analyses. […] For data points with Fe<0, the fractional effect was set to 0.001. Data points with Fe>0.99 or <0.01 were omitted from the Chou-Talalay analysis because the Chou-Talalay analysis fits data to the Log of the fractional effect, with equal weight applied across the range of effect, such that the high and low end of the dose response, very small changes in effect within the range of experimental error erroneously skew the outcome of the model fit.
# (§7) A Combination Index (CI) vs Fractional Effect plot showing the actual combination index plotted vs Fractional effect value was plotted for each combination dose. In this analysis, CI=1 represents additive activity, CI>1 represent less than additive activity (often referred to as antagonism) and CI<1=synergistic activity (better than additive).
# [5] = test system: MOML-13 (Human Acute Myeloid Leukemia cell line); test: as above; assay type: cell-based; settings: for effect of the combination with Compound 1: MOML-13 (BRCA2 mutant, FLT3 heterozygous); for Combination Index: agent in combination with Compound 1, CI scores across all 3 ratios averaged, MOML-13
# Experimental: as §4, §5, §6, §7
# [6] = test system: OCI-AML-3 (Human Acute Myeloid Leukemia cell line); test: as above; assay type: cell-based; settings: for effect of the combination with Compound 1: OCI-AML-3 (FLT3 wildtype); for Combination Index: agent in combination with Compound 1, CI scores across all 3 ratios averaged, OCI-AML-3
# Experimental: as §4, §5, §6, §7
# [7] = CB-5083 tested previously in subjects; cited from earlier work
# [8] = test system: DU4475 (Breast); test: Cell Titer-Glo viability: single agent IC50 and Compound 1 + PARP inhibitor matrix (Bliss); assay type: cell-based; settings: for # in matrix with Bliss >5: 6×6 matrix of PARP inhibitor with Compound 1; for IC50: single agent, read-out: Absolute IC50
# Experimental: (§8) The PARP inhibitors used for the study were talazoparib, olaparib and niraparib. […] was used as a reference control. […] For each drug agent on its own, IC50 values in each cell line were determined. Interactions of the combinations of Compound 1 and each PARP inhibitor was assessed as follows: […] Cisplatin and culture media were used as positive and negative control, respectively. The combination activities were assessed using CrownSyn software to determine synergy scores by Bliss Independence and Loewe additivity methods. […] Synergy scores calculated by both Bliss independence model and Loewe additivity model (see Greco, […]., Poch, G., Suhnel, J., Kundi, M., & Bodeker, W. (1992). Consensus on concepts and terminology for combined-action assessment: the […] agreement. […] Without being bound by theory, the Bliss independence model is often applied to asses synergy for non-interacting drugs that elicit their responses independently, e.g., by targeting separate pathways, whereas the Loewe additivity model may be more compatible where both drugs have similar modes of action on the same targets or pathways.
# [9] = test system: Capan-1 (Pancreas); test: as above; assay type: cell-based; settings: for # in matrix with Bliss >5: 6×6 matrix of PARP inhibitor with Compound 1; for IC50: single agent, read-out: Absolute IC50
# Experimental: as §8
# [10] = test system: SK-OV-3 (Ovary); test: as above; assay type: cell-based; settings: for # in matrix with Bliss >5: 6×6 matrix of PARP inhibitor with Compound 1; for IC50: single agent, read-out: Absolute IC50
# Experimental: as §8
# [11] = test system: HCC1937 (Breast); test: as above; assay type: cell-based; settings: for # in matrix with Bliss >5: 6×6 matrix of PARP inhibitor with Compound 1; for IC50: single agent, read-out: Absolute IC50
# Experimental: as §8
# [12] = test system: IGR-OV1 (Ovary); test: as above; assay type: cell-based; settings: for # in matrix with Bliss >5: 6×6 matrix of PARP inhibitor with Compound 1; for IC50: single agent, read-out: Absolute IC50
# Experimental: as §8
# [13] = test system: DoTc2 4510 (Uterus/Cervix); test: as above; assay type: cell-based; settings: for # in matrix with Bliss >5: 6×6 matrix of PARP inhibitor with Compound 1; for IC50: single agent, read-out: Absolute IC50
# Experimental: as §8
# [14] = test system: HCC1806 (Breast); test: as above; assay type: cell-based; settings: for # in matrix with Bliss >5: 6×6 matrix of PARP inhibitor with Compound 1; for IC50: single agent, read-out: Absolute IC50
# Experimental: as §8
# [15] = test system: OVCAR-8 (Ovary); test: as above; assay type: cell-based; settings: for # in matrix with Bliss >5: 6×6 matrix of PARP inhibitor with Compound 1; for IC50: single agent, read-out: Absolute IC50
# Experimental: as §8
# [16] = test system: HCC1395 (Breast); test: as above; assay type: cell-based; settings: for # in matrix with Bliss >5: 6×6 matrix of PARP inhibitor with Compound 1; for IC50: single agent, read-out: Absolute IC50
# Experimental: as §8
# [17] = test system: MX-1 (Breast); test: as above; assay type: cell-based; settings: for # in matrix with Bliss >5: 6×6 matrix of PARP inhibitor with Compound 1; for IC50: single agent, read-out: Absolute IC50
# Experimental: as §8
smiles,measurement,setting,value
"Nc1ncn([C@@H]2O[C@H](CO)[C@@H](O)[C@H]2O)c(=O)n1 [Azacitidine, azacitidine, reference compound]",IC50,"[1]; MV4-11, MV4, 11, fixed agent Compound 1 - 185 nM, read-out: IC50",0.11 µM
same,IC50,"[2]; HL-60, HL-60, fixed agent Compound 1 - 210 nM, read-out: IC50",1.96 µM
same,IC50,"[3]; MOML-13, fixed agent Compound 1 - 75 nM, read-out: IC50",0.125 µM
"Nc1ncn([C@H]2C[C@H](O)[C@@H](CO)O2)c(=O)n1 [Decitabine, decitabine, reference compound]",IC50,[1]; MV4-11,0.0071 µM
same,IC50,"[1]; MV4-11, 72 h",0.39 µM
same,IC50,[2]; HL-60,4.03 µM
same,IC50,"[2]; HL-60, 72 h",5.29 µM
same,IC50,[3],0.0065 µM
same,IC50,[3]; 72 h,0.0108 µM
CC(C)C[C@H](NC(=O)CNC(=O)c1cc(Cl)ccc1Cl)B(O)O [Ixazomib],effect of the combination with Compound 1,[4],antagonistic
same,Combination Index,[4],1.546
same,effect of the combination with Compound 1,[5],antagonistic
same,Combination Index,[5],1.413
same,effect of the combination with Compound 1,[6],antagonistic
same,Combination Index,[6],1.438
CC1(C)CCC(CN2CCN(c3ccc(C(=O)NS(=O)(=O)c4ccc(NCC5CCOCC5)c([N+](=O)[O-])c4)c(Oc4cnc5[nH]ccc5c4)c3)CC2)=C(c2ccc(Cl)cc2)C1 [Venetoclax],Combination Index,[5],0.730
"Cc1cc2c(C(N)=O)cccc2n1-c1nc2c(c(NCc3ccccc3)n1)COCC2 [CB-5083, 1-[7,8-dihydro-4-[(phenylmethyl)amino]-5H-pyrano[4,3-d]pyrimidin-2-yl]-2-methyl-1H-indole-4-carboxamide]",visual adverse events,[7],symptoms of visual impairment or other visual adverse events
"O=C(c1cc(Cc2n[nH]c(=O)c3ccccc23)ccc1F)N1CCN(C(=O)C2CC2)CC1 [Olaparib, olaparib]",# in matrix with Bliss >5,[8],13/36
same,IC50,"[8]; Homo sapiens, DU-4475, 72 h",4.52 µM
same,# in matrix with Bliss >5,[9],4/36
same,IC50,"[9]; Homo sapiens, 72 h",> 5 µM
same,# in matrix with Bliss >5,[10],10/36
same,# in matrix with Bliss >5,[11],23/36
same,# in matrix with Bliss >5,[12],12/36
same,IC50,"[12]; Homo sapiens, IGROV-1, 72 h",> 5 µM
same,# in matrix with Bliss >5,[13],5/36
same,IC50,[13]; Homo sapiens,> 5 µM
same,# in matrix with Bliss >5,[14],17/36
same,IC50,"[14]; Homo sapiens, 72 h",> 5 µM
same,# in matrix with Bliss >5,[15],8/36
same,IC50,"[15]; Homo sapiens, 72 h",> 5 µM
same,# in matrix with Bliss >5,[16],8/36
same,IC50,"[16]; Homo sapiens, 72 h",> 5 µM
same,# in matrix with Bliss >5,[17],3/36
same,IC50,[17],> 5 µM
N.N.[Cl][Pt][Cl] [Cisplatin],IC50,[8],1.6 µM
same,IC50,[9],1.68 µM
same,IC50,[10],8.3 µM
same,IC50,[11],12.1 µM
same,IC50,[12],1.45 µM
same,IC50,[13],10.2 µM
same,IC50,[14],3.24 µM
same,IC50,[15],9.22 µM
same,IC50,[16],4.75 µM
same,IC50,[17],6.6 µM
Cn1ncnc1[C@H]1c2n[nH]c(=O)c3cc(F)cc(c23)N[C@@H]1c1ccc(F)cc1 [Talazoparib],# in matrix with Bliss >5,[8],15/36
same,IC50,"[8]; Homo sapiens, DU-4475, 72 h",0.03 µM
same,# in matrix with Bliss >5,[9],4/36
same,IC50,"[9]; Homo sapiens, 72 h",2.64 µM
same,# in matrix with Bliss >5,[10],13/36
same,IC50,[10]; Homo sapiens,> 5 µM
same,# in matrix with Bliss >5,[11],8/36
same,IC50,[11]; Homo sapiens,> 5 µM
same,# in matrix with Bliss >5,[12],7/36
same,# in matrix with Bliss >5,[13],5/36
same,# in matrix with Bliss >5,[14],3/36
same,IC50,"[14]; Homo sapiens, 72 h",> 5 µM
same,# in matrix with Bliss >5,[15],6/36
same,IC50,"[15]; Homo sapiens, 72 h",> 5 µM
same,# in matrix with Bliss >5,[16],0/36
same,IC50,"[16]; Homo sapiens, 72 h",> 5 µM
same,# in matrix with Bliss >5,[17],0/36
same,effect of the combination with Compound 1,[5],strong synergy
COCC1(CO)C(=O)C2CCN1CC2 (stereo not shown) [APR-246],Combination Index,[4],1.285
same,Combination Index,[5],1.228
same,Combination Index,[6],1.279
"NC(=O)c1cccc2cn(-c3ccc([C@@H]4CCCNC4)cc3)nc12 [Niraparib, niraparib]",# in matrix with Bliss >5,[8],10/36
same,IC50,"[8]; Homo sapiens, DU-4475, 72 h",1.02 µM
same,# in matrix with Bliss >5,[9],2/36
same,IC50,"[9]; Homo sapiens, 72 h",> 5 µM
same,# in matrix with Bliss >5,[10],8/36
same,# in matrix with Bliss >5,[11],15/36
same,# in matrix with Bliss >5,[12],7/36
same,IC50,"[12]; Homo sapiens, IGROV-1, 72 h",> 5 µM
same,# in matrix with Bliss >5,[13],6/36
same,# in matrix with Bliss >5,[14],9/36
same,IC50,"[14]; Homo sapiens, 72 h",> 5 µM
same,# in matrix with Bliss >5,[15],9/36
same,IC50,"[15]; Homo sapiens, 72 h",> 5 µM
same,# in matrix with Bliss >5,[16],6/36
same,IC50,"[16]; Homo sapiens, 72 h",> 5 µM
same,# in matrix with Bliss >5,[17],4/36
CN(C)CCCOc1ccc(-c2ccc3ncc4c(c3c2)n(C2CCOCC2)c(=O)n4C)cn1 [AZDO156],Combination Index,[4],1.122
same,Combination Index,[5],1.293
same,Combination Index,[6],1.159
Nc1ccn([C@@H]2O[C@H](CO)[C@@H](O)[C@@H]2O)c(=O)n1 [cytarabine],effect of the combination with Compound 1,[4],additive effects
same,effect of the combination with Compound 1,[5],additive effects
same,effect of the combination with Compound 1,[6],additive effects
